Laboratory results as given in ChEMBL document CHEMBL2321741, “Discovery and optimization of potent broad-spectrum arenavirus inhibitors derived from benzimidazole” (Bioorg Med Chem Lett, 2013).
Active and inactive are the calls of the source. The rule behind the calls is not given here.

What was measured:
Lassa virus [1] = test: Antiviral activity against Lassa virus pseudovirions infected in HEK293T/17 cells after 72 hrs by luciferase reporter gene assay; format: functional, organism-based; details: Mammarenavirus lassaense, HEK-293T
Lassa virus [2] = test: Antiviral activity against Lassa virus infected in guinea pig strain 13 assessed as host survival rate at 80 mg/kg/day, ip administered at 1 hr prior to infection for 14 days relative to control; format: functional, Mammarenavirus lassaense; details: route intraperitoneal
Guanarito virus = test: Antiviral activity against Guanarito virus pseudovirions infected in HEK293T/17 cells after 72 hrs by luciferase reporter gene assay; format: functional, cell-based; details: Mammarenavirus guanaritoense, HEK-293T
Sabia virus = test: Antiviral activity against Sabia virus pseudovirions infected in HEK293T/17 cells after 72 hrs by luciferase reporter gene assay; format: functional, cell-based; details: HEK-293T
Junin virus = test: Antiviral activity against Junin virus pseudovirions infected in HEK293T/17 cells after 72 hrs by luciferase reporter gene assay; format: functional, organism-based; details: Mammarenavirus juninense, HEK-293T
Machupo mammarenavirus = test: Antiviral activity against Machupo virus pseudovirions infected in HEK293T/17 cells after 72 hrs by luciferase reporter gene assay; format: functional, cell-based; details: Mammarenavirus machupoense, HEK-293T
Lassa virus [3] = test: Antiviral activity against Lassa virus pseudovirions infected in HEK293T/17 cells at 50 uM after 72 hrs by luciferase reporter gene assay; format: functional, organism-based; details: Mammarenavirus lassaense, HEK-293T
Lassa virus [4] = test: Antiviral activity against Lassa virus infected in guinea pig strain 13 assessed as host survival rate at 25 mg/kg/day, ip administered at 1 hr prior to infection for 14 days relative to control; format: functional, Mammarenavirus lassaense; details: route intraperitoneal
Lassa virus [5] = test: Antiviral activity against Lassa virus infected in guinea pig strain 13 assessed as reduction in viral titre in plasma at 25 mg/kg/day, ip administered at 1 hr prior to infection for 14 days relative to control; format: functional, Mammarenavirus lassaense; details: route intraperitoneal

COc1ccc(-n2cnc3cc(NCc4cccc(OC)c4OC)ccc32)cc1
EC50 (Lassa virus [1]): 160 nM

CCCCOc1ccc(CNc2ccc3c(c2)ncn3-c2ccc(OC)cc2)cc1
EC50 (Lassa virus [1]): 6 nM

CCCCc1ccc(-n2cnc3cc(NCc4ccc(C(C)C)cc4)ccc32)cc1
EC50 (Lassa virus [1]): 4.4 nM

CCc1ccc(CNc2ccc3c(c2)ncn3-c2ccc(OC)nc2)cc1
EC50 (Lassa virus [1]): 32 nM

COc1ccc(-n2cnc3cc(NCc4ccccc4OC)ccc32)cc1
EC50 (Lassa virus [1]): 460 nM

CCc1ccc(CNc2ccc3c(c2)ncn3-c2ccc(OC)nn2)cc1
EC50 (Lassa virus [1]): 81 nM

CCc1ccc(CNc2ccc3c(c2)ncn3-c2cnc(OC)nc2)cc1
EC50 (Lassa virus [1]): 450 nM

COc1ccc(-n2cnc3cc(NCc4ccc(OC)c(OC)c4)ccc32)cc1
EC50 (Lassa virus [1]): 700 nM

COc1ccc(-n2cnc3cc(NC(=O)c4ccc(C)cc4)ccc32)cc1
EC50 (Lassa virus [1]): > 50000 nM

COc1ccc(-n2cnc3cc(NCc4ccco4)ccc32)cc1
EC50 (Lassa virus [1]): 1200 nM

COc1ccc(-n2cnc3cc(NCc4cccc5ccccc45)ccc32)cc1
EC50 (Lassa virus [1]): 69 nM

CC(C)c1ccc(CNc2ccc3c(c2)ncn3-c2ccc(C(C)(C)C)cc2)cc1
EC50 (Lassa virus [1]): 4 nM

COc1ccc(-n2cnc3cc(NCc4ccc(Oc5ccccc5)cc4)ccc32)cc1
EC50 (Lassa virus [1]): 380 nM

CCOc1ccc(-n2cnc3cc(NCc4ccc(C)cn4)ccc32)cc1
EC50 (Lassa virus [1]): 350 nM

NC(=O)c1ncn([C@@H]2O[C@H](CO)[C@@H](O)[C@H]2O)n1 [RIBAVIRIN]
Activity (Lassa virus [2]): 0%

COc1ccc(-n2cnc3cc(NCc4ccc(Cl)cc4)ccc32)cc1
EC50 (Lassa virus [1]): 47 nM

CCOc1ccc(CNc2ccc3c(c2)ncn3-c2ccc(OC)cc2)cc1
EC50 (Lassa virus [1]): 4 nM

CC(C)c1ccc(CNc2ccc3c(c2)ncn3-c2ccc(Oc3ccc4ccccc4c3)cc2)cc1
EC50 (Lassa virus [1]): 540 nM

COc1ccc(CNc2ccc3c(c2)ncn3-c2ccc(OC)cc2)cc1
EC50 (Guanarito virus): 5.6 nM | EC50 (Sabia virus): 110 nM | EC50 (Junin virus): 7.7 nM | EC50 (Machupo mammarenavirus): 45 nM | EC50 (Lassa virus [1]): 11 nM

CCOc1ccc(-n2cnc3cc(NCc4ccc(CC(=O)O)cc4)ccc32)cc1
EC50 (Lassa virus [1]): 1300 nM

CCc1ccc(CNc2ccc3c(c2)ncn3-c2ccc(OC)cc2)cc1
EC50 (Lassa virus [1]): 1.2 nM

CCc1ccc(-n2cnc3cc(NCc4ccc(C(C)C)cc4)ccc32)cc1
EC50 (Lassa virus [1]): 1.9 nM

CCOc1ccc(-n2cnc3cc(NCc4ccc(C)nc4)ccc32)cc1
EC50 (Lassa virus [1]): 240 nM

COc1ccc(-n2cnc3cc(NCc4ccc(OC(C)(C)C)cc4)ccc32)cc1
EC50 (Lassa virus [1]): 5.2 nM

COc1ccc(-n2cnc3cc(N(Cc4ccc(C(C)C)cc4)S(=O)(=O)c4ccc(C)cc4)ccc32)cc1
EC50 (Sabia virus): 510 nM | EC50 (Junin virus): 16 nM | EC50 (Machupo mammarenavirus): 40 nM | EC50 (Lassa virus [1]): 110 nM

COc1ccc(-n2cnc3cc(NCc4ccc(Cc5ccccc5)cc4)ccc32)cc1
EC50 (Lassa virus [1]): 46 nM

COc1ccc(-n2cnc3cc(NCc4ccc(CN(C)C)cc4)ccc32)cc1
EC50 (Lassa virus [1]): 270 nM

CC(C)c1ccc(CNc2ccc3c(c2)ncn3-c2ccc(Oc3ccccc3)cc2)cc1
EC50 (Lassa virus [1]): 130 nM

COc1ccc(-n2cnc3cc(NCc4ccc(CN5CCN(C)CC5)cc4)ccc32)cc1
EC50 (Lassa virus [1]): 16000 nM

CC(C)c1ccc(CNc2ccc3c(c2)ncn3-c2ccc(OCCc3ccccc3)cc2)cc1
EC50 (Lassa virus [1]): 43 nM

COc1ccc(-n2cnc3cc(NCc4ccc(CN5CCOCC5)cc4)ccc32)cc1
EC50 (Lassa virus [1]): 790 nM

COc1ccc(-n2cnc3cc(N(C)Cc4ccc(C(C)C)cc4)ccc32)cc1
EC50 (Lassa virus [1]): 57 nM

CCCCc1ccc(CNc2ccc3c(c2)ncn3-c2ccc(OC)cc2)cc1
EC50 (Lassa virus [1]): 1.5 nM

CCOc1ccc(-n2cnc3cc(CNc4ccc(CC)cc4)ccc32)cc1
EC50 (Sabia virus): 43 nM | EC50 (Junin virus): 5 nM | EC50 (Machupo mammarenavirus): 12 nM | EC50 (Lassa virus [1]): 11 nM

CCCCOc1ccc(-n2cnc3cc(NCc4ccc(C(C)C)cc4)ccc32)cc1
EC50 (Lassa virus [1]): 5.6 nM

COc1ccc(-n2cnc3cc(NCc4cccc(OC)c4)ccc32)cc1
EC50 (Lassa virus [1]): 35 nM

COc1ccc(-n2cnc3cc(NCc4ccc(C(C)(C)C)cc4)ccc32)cc1
EC50 (Lassa virus [1]): 1.1 nM

CC(C)c1ccc(CNc2ccc3c(c2)ncn3-c2ccccc2)cc1
EC50 (Lassa virus [1]): 5.2 nM

CCCNc1ccc2c(c1)ncn2-c1ccc(OC)cc1
Activity (Lassa virus [3]): inactive

COc1ccc(-n2cnc3cc(NCc4ccc(CN5CCCCC5)cc4)ccc32)cc1
EC50 (Lassa virus [1]): 1400 nM

CNc1ccc2c(c1)ncn2-c1ccc(OC)cc1
Activity (Lassa virus [3]): inactive

COc1ccc(-n2cnc3cc(N(Cc4ccc(C(C)C)cc4)C(C)=O)ccc32)cc1
EC50 (Lassa virus [1]): 380 nM

COc1ccc(-n2cnc3cc(NCc4ccc(C(C)C)cc4)ccc32)cc1
Activity (Lassa virus [4]): 63% | fold change (FC) (Lassa virus [5]): 2 | EC50 (Guanarito virus): 0.44 nM | EC50 (Sabia virus): 21 nM | EC50 (Junin virus): 0.62 nM | EC50 (Machupo mammarenavirus): 3.1 nM | EC50 (Lassa virus [1]): 1.4 nM

CC(C)c1ccc(CNc2ccc3c(c2)ncn3-c2ccc(Cc3ccccc3)cc2)cc1
EC50 (Lassa virus [1]): 120 nM

COc1ccc(-n2cnc3cc(NCc4ccc(OCCN(C)C)cc4)ccc32)cc1
EC50 (Lassa virus [1]): 3300 nM

CCc1ccc(CNc2ccc3c(c2)ncn3-c2ccc(OC)cn2)cc1
EC50 (Lassa virus [1]): 5.8 nM

COc1ccc(-n2cnc3cc(NCc4ccccc4O)ccc32)cc1
EC50 (Lassa virus [1]): 310 nM

CC(C)c1ccc(CNc2ccc3ncn(-c4ccc(OC(C)(C)C)cc4)c3c2)cc1
EC50 (Lassa virus [1]): 180 nM

Cc1ccc(CNc2ccc3c(c2)ncn3C2CCCCC2)cc1
EC50 (Lassa virus [1]): 320 nM

CCOc1ccc(-n2cnc3cc(NCc4cnc(CC)nc4)ccc32)cc1
EC50 (Lassa virus [1]): 450 nM

CC(C)c1ccc(CNc2ccc3c(c2)ncn3-c2ccc(OC(C)(C)C)cc2)cc1
EC50 (Lassa virus [1]): 8.6 nM
